In this assay the test system is L1210 leukemia ip in BDF1 mice, survival T/C. Briefly: NCI In Vivo Anticancer Drug Screen. Data for tumor model L1210 Leukemia (intraperitoneal) in B6D2F1 (BDF1) mice. The following applies: endpoint: mean survival time, higher = longer survival. Put shortly:
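Mice bearing the transplanted tumor received compound or vehicle. Survival of the treated group was divided by that of the vehicle-treated control group to give the ratio.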

The mark [1] stands for this setting: dose: 100.0 mg/kg/injection, schedule: Q01DX001 (ip), vehicle: Klucel (hydroxypropylcellulose) (HPC).
Where [2] appears, read: dose: 200.0 mg/kg/injection, schedule: Q01DX001 (ip), vehicle: Klucel (hydroxypropylcellulose) (HPC).
Setting [3] is: dose: 400.0 mg/kg/injection, schedule: Q01DX001 (ip), vehicle: Klucel (hydroxypropylcellulose) (HPC).
[4] abbreviates: dose: 100.0 mg/kg/injection, schedule: Q04DX003 (ip), vehicle: saline with Tween-80.
Where [5] appears, read: dose: 200.0 mg/kg/injection, schedule: Q04DX003 (ip), vehicle: saline with Tween-80.
Where [6] appears, read: dose: 400.0 mg/kg/injection, schedule: Q04DX003 (ip), vehicle: saline with Tween-80.
[7] abbreviates: dose: 100.0 mg/kg/injection, schedule: Q01DX009 (ip), vehicle: saline sonified.
Setting [8] is: dose: 100.0 mg/kg/injection, schedule: Q01DX009 (ip), vehicle: Klucel (hydroxypropylcellulose) (HPC).
The mark [9] stands for this setting: dose: 200.0 mg/kg/injection, schedule: Q01DX009 (ip), vehicle: Klucel (hydroxypropylcellulose) (HPC).
Setting [10] is: dose: 400.0 mg/kg/injection, schedule: Q01DX009 (ip), vehicle: Klucel (hydroxypropylcellulose) (HPC).
Setting [11] is: dose: 50.0 mg/kg/injection, schedule: Q01DX001 (ip), vehicle: saline.
Setting [12] is: dose: 100.0 mg/kg/injection, schedule: Q01DX001 (ip), vehicle: saline.
[13] abbreviates: dose: 200.0 mg/kg/injection, schedule: Q01DX001 (ip), vehicle: saline.

Each structure is given as a SMILES string. “And” between values parts separate entries of the source, which are not always exact repeats. Equal values may be shown once. Toxic doses and inconclusive results are not listed.

The values below come from PubChem BioAssay AID248 (DTP/NCI, 2004).

`COC(=O)C1C(=C(c2ccccc2)c2ccccc2)C1c1ccccc1` (stereo not drawn): the T/C was 96 % of control (dose: 75.0 mg/kg/injection, schedule: Q04DX003 (ip), vehicle: Klucel (hydroxypropylcellulose) (HPC)); 95 % of control under setting [1]; 93 % of control (dose: 100.0 mg/kg/injection, schedule: Q01DX001 (ip), vehicle: steriod suspending solution); 94 % of control (dose: 150.0 mg/kg/injection, schedule: Q04DX003 (ip), vehicle: Klucel (hydroxypropylcellulose) (HPC)); 95 % of control under setting [2]; 98 % of control (dose: 200.0 mg/kg/injection, schedule: Q01DX001 (ip), vehicle: steriod suspending solution). Besides, the T/C is 100 % of control (dose: 300.0 mg/kg/injection, schedule: Q04DX003 (ip), vehicle: Klucel (hydroxypropylcellulose) (HPC)); 103 % of control under setting [3]; 95 % of control (dose: 400.0 mg/kg/injection, schedule: Q01DX001 (ip), vehicle: steriod suspending solution).

In the case of `C[N+]1(C)CCC(=O)CC1`, the T/C is 98 % of control under setting [4], 98 % of control under setting [5] and 95 % of control under setting [6].

Turning to `CCCCCCCCC1N(C)CCCN1C`, the T/C is, setting by setting: (dose: 12.5 mg/kg/injection, schedule: Q01DX009 (ip), vehicle: saline with Tween-80) 98 % of control; (dose: 25.0 mg/kg/injection, schedule: Q01DX001 (ip), vehicle: saline with Tween-80) 105 % of control; (dose: 25.0 mg/kg/injection, schedule: Q01DX009 (ip), vehicle: saline with Tween-80) 86 % of control; (dose: 50.0 mg/kg/injection, schedule: Q01DX001 (ip), vehicle: saline with Tween-80) 105 % of control; (dose: 50.0 mg/kg/injection, schedule: Q01DX009 (ip), vehicle: saline with Tween-80) 98 % of control and 101 % of control; (dose: 100.0 mg/kg/injection, schedule: Q01DX001 (ip), vehicle: saline with Tween-80) 97 % of control and 101 % of control.

In the case of `COC(=O)C(CCC(=O)C=[N+]=N)NC(=O)C(Cl)Cl` (stereo not drawn), the T/C reads like this: (dose: 35.0 mg/kg/injection, schedule: Q01DX001 (ip), vehicle: saline) 122 % of control; (dose: 75.0 mg/kg/injection, schedule: Q01DX001 (ip), vehicle: saline) 122 % of control; (dose: 125.0 mg/kg/injection, schedule: Q01DX001 (ip), vehicle: saline) 111 % of control; under setting [5], 167 % of control; (dose: 266.0 mg/kg/injection, schedule: Q01DX001 (ip), vehicle: saline) 98 % of control; under setting [6], 124 % of control. For the same molecule, the T/C (dose: 600.0 mg/kg/injection, schedule: Q01DX001 (ip), vehicle: saline) is 117 % of control.

For `O=C(Cn1ccc(O)cc1=O)c1cccs1`, the T/C was 102 % of control (dose: 100.0 mg/kg/injection, schedule: Q01DX009 (ip), vehicle: saline with Tween-80); 101 % of control under setting [4]; 100 % of control (dose: 200.0 mg/kg/injection, schedule: Q01DX009 (ip), vehicle: saline with Tween-80); 100 % of control under setting [5]; 98 % of control (dose: 400.0 mg/kg/injection, schedule: Q01DX009 (ip), vehicle: saline with Tween-80); 100 % of control under setting [6].

For the molecule `S=C(Cc1ccc2ccccc2c1)N1CCN(c2ccccc2)CC1`, the T/C is, setting by setting: (dose: 100.0 mg/kg/injection, schedule: Q01DX001 (ip), vehicle: olive oil, sesame oil, peanut oil) 92 % of control; (dose: 100.0 mg/kg/injection, schedule: Q04DX003 (sc), vehicle: olive oil, sesame oil, peanut oil) 100 % of control; (dose: 200.0 mg/kg/injection, schedule: Q01DX001 (ip), vehicle: olive oil, sesame oil, peanut oil) 97 % of control; (dose: 200.0 mg/kg/injection, schedule: Q04DX003 (sc), vehicle: olive oil, sesame oil, peanut oil) 111 % of control; (dose: 400.0 mg/kg/injection, schedule: Q01DX001 (ip), vehicle: olive oil, sesame oil, peanut oil) 97 % of control; (dose: 400.0 mg/kg/injection, schedule: Q04DX003 (sc), vehicle: olive oil, sesame oil, peanut oil) 107 % of control.

As for `Nc1nc(-c2ccc(O)cc2)nc2[nH]ncc12`, the T/C was 91 % of control under setting [1], 100 % of control under setting [2] and 94 % of control under setting [3].

`O=C(O)c1ccccc1NC(=O)C(F)(F)F`: the T/C is, setting by setting: (dose: 25.0 mg/kg/injection, schedule: Q01DX009 (ip), vehicle: saline sonified) 98 % of control; (dose: 50.0 mg/kg/injection, schedule: Q01DX009 (ip), vehicle: saline sonified) 96 % of control; under setting [7], 93 % of control; (dose: 100.0 mg/kg/injection, schedule: Q04DX003 (ip), vehicle: Klucel (hydroxypropylcellulose) (HPC)) 101 % of control.

In the case of `O=c1[nH]cnc2sc3c(c12)CCCC3`, the T/C is, setting by setting: under setting [7], 94 % of control; (dose: 100.0 mg/kg/injection, schedule: Q04DX003 (ip), vehicle: saline sonified) 92 % of control; (dose: 200.0 mg/kg/injection, schedule: Q01DX009 (ip), vehicle: saline sonified) 116 % of control; (dose: 200.0 mg/kg/injection, schedule: Q04DX003 (ip), vehicle: saline sonified) 98 % of control; (dose: 400.0 mg/kg/injection, schedule: Q01DX009 (ip), vehicle: saline sonified) 100 % of control; (dose: 400.0 mg/kg/injection, schedule: Q04DX003 (ip), vehicle: saline sonified) 101 % of control.

Take `CCC/C=C\COc1ccc(C(=O)OCC)cc1`: the T/C reads like this: (dose: 100.0 mg/kg/injection, schedule: Q04DX002 (ip), vehicle: other) 111 % of control; (dose: 200.0 mg/kg/injection, schedule: Q04DX002 (ip), vehicle: other) 108 % of control; (dose: 400.0 mg/kg/injection, schedule: Q04DX002 (ip), vehicle: other) 97 % of control.

With `O=C(NC1CCC12CC2)c1ccc2ccccc2c1` (stereo not drawn), the T/C is, setting by setting: (dose: 37.5 mg/kg/injection, schedule: Q04DX002 (ip), vehicle: saline with Tween-80) 97 % of control; (dose: 75.0 mg/kg/injection, schedule: Q04DX002 (ip), vehicle: saline with Tween-80) 93 % of control; (dose: 150.0 mg/kg/injection, schedule: Q04DX002 (ip), vehicle: saline with Tween-80) 93 % of control; (dose: 300.0 mg/kg/injection, schedule: Q04DX002 (ip), vehicle: saline with Tween-80) 93 % of control.

As to `CN(C(=O)Nc1cccc(C(F)(F)F)c1)c1ccccc1`, the T/C by setting is: under setting [8], 98 % of control; under setting [9], 96 % of control; under setting [10], 101 % of control.

In the case of `CC(=O)C(O)COP(=O)(O)O` (stereo not drawn), the T/C was 96 % of control under setting [11]; 100 % of control under setting [12]; 102 % of control under setting [13]; 100 % of control (dose: 400.0 mg/kg/injection, schedule: Q01DX001 (ip), vehicle: saline).

For `CCOC(=O)c1ccc(NC(=O)Nc2cc(C)ccn2)cc1`, the T/C under setting [8] was 96 % of control, the T/C under setting [9] was 107 % of control and the T/C under setting [10] was 105 % of control.

As to `COc1cc2ccnc(C=O)c2cc1OC`, the T/C reads like this: under setting [11], 96 % of control; under setting [12], 95 % of control; under setting [13], 101 % of control.

Regarding `CC/C(=C(\CC)c1ccc(OCCN(CCCl)CCCl)cc1)c1ccc(OCCN(CCCl)CCCl)cc1`, the T/C runs as follows: (dose: 25.0 mg/kg/injection, schedule: Q04DX002 (ip), vehicle: saline with Tween-80) 90 % of control; (dose: 50.0 mg/kg/injection, schedule: Q04DX002 (ip), vehicle: saline with Tween-80) 94 % of control; (dose: 100.0 mg/kg/injection, schedule: Q04DX002 (ip), vehicle: saline with Tween-80) 101 % of control.
